Biological target: T1, Regulator of G-protein signaling 19 (Homo sapiens, UniProt P49795)
T1 sequence (P49795 whole entry): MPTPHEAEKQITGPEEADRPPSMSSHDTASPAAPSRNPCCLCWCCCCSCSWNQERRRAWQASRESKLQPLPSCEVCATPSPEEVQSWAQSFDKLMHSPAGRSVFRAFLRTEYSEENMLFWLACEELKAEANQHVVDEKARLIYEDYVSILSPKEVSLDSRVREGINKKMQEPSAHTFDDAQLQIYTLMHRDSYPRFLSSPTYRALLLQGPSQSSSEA
Assay: analogs regulating RGS19 interaction with Gαo – biochemical, SAR compounds, multiplexed bead flow cytometry, SAR follow-up (AID 2311)

- Ki: 100 nM
SMILES: NS(=O)(=O)c1ccc(N=NCc2ccc(O)c(O)c2O)c([N+](=O)[O-])c1 [4-[[(E)-(2,3-dihydroxy-4-oxo-1-cyclohexa-2,5-dienylidene)methyl]hydrazo]-3-nitrobenzenesulfonamide]
